The text below walks through data of PMC7369893, “Antimicrobial Peptides Display Strong Synergy with Vancomycin Against Vancomycin-Resistant E. faecium, S. aureus, and Wild-Type E. coli” (International Journal of Molecular Sciences, 2020).

Data set [1] relates to E. faecium BCRC 15B0132 (VRE). The data set can be described thus: microbe, parasite or virus in culture. It is filed as cell-based, Enterococcus faecium. Particulars: BCRC 15, 16 h. The protocol:
(§1) The antibacterial activities of peptides were determined by the standard broth microdilution method according to the guidelines of the Clinical and Laboratory Standards Institute (CLSI). Briefly, E. coli ATCC 25922 were incubated in MHB, and E. faecium BCRC 15B0132, VISA and VRSA strains were incubated in TSB overnight at 37 °C. The cell cultures were regrown to the mid-log phase and subsequently diluted to a final concentration of 5 × 10^5 CFU/mL. The 1 µL peptides or antibiotic were loaded into each well at the final concentration of 64, 32, 16, 8, 4, 2, 1, and 0.5 µg/mL, then loaded 99 µL diluted microbes into each well of polypropylene 96-well plate. After 16 h of incubation at 37 °C, the turbidity at OD600 was measured by the microplate reader. The minimal inhibitory concentration (MIC) value was defined as the lowest concentration of peptide or antibiotic, which inhibited the 90% visible growth of bacteria. All experiments were repeated three times independently.

A further data set has as its system E. faecium BCRC 15B0132. Nature of the data set: Uptake of BODIPY-labeled vancomycin, confocal laser scanning microscopy. It is filed as cell-based, Enterococcus faecium. The conditions noted are these: VRE 10^7 CFU/mL, 0.5 ×MIC peptide 30 min at 37 °C, then BODIPY-labeled vancomycin (2 μg/mL) 30 min; mean fluorescence intensity. The protocol: (§2) The fluorescence experiments were performed with slight modification as described previously. Briefly, the bacteria (10^7 CFU/mL) were incubated with 0.5 ×MIC antimicrobial peptides for 30 min and then treated with BODIPY-labeled vancomycin (2 μg/mL) for 30 min. Samples treated with BODIPY-labeled vancomycin only served as a control. After incubation, bacteria were centrifuged at 8000× g for 5 min, washed three times with PBS to remove unbinding fluorescence dye, and resuspended by PBS. The resuspended solution were loaded on the glass slides (Polysine™, Thermo Fisher Scientific, Waltham, MA, USA) and visualized under confocal laser scanning microscope (LSM 510 META, Carl Zeiss, Jena, Thüringen, Germany) equipped with a 64× oil objective lens (Carl Zeiss, Jena, Thüringen, Germany).

For data set [2], the system named is Vancomycin-resistant S. aureus 03 (VRSA03). Nature of the data set: microbe, parasite or virus in culture. It is filed as cell-based, Staphylococcus aureus. The conditions noted are these: VRSA03 (induced from VISA03 by serial passage); CLSI broth microdilution, TSB, 5 × 10^5 CFU/mL, 16 h, 37 °C; triplicate. The protocol:
(§3) For the purpose of inducing vancomycin-resistant Staphylococcus aureus (VRSA), the VISA01, VISA02, and VISA03 bacteria were incubated overnight in culture medium, and transferring 50 µL of bacteria to 5 mL of fresh medium containing 2 μg/mL of vancomycin then incubated overnight. The bacteria were transferred to new tube with doubling vancomycin concentration and then incubated overnight again. The concentration of vancomycin during serial passage was 2, 4, 8, 16, and 32 µg/mL. The procedure was repeated until meeting the final concentration of 32 µg/mL. After serial passage, the cell resistance was confirmed by using an MIC assay.
as §1
(Dilution methods test growth across graded concentrations, often in twofold steps.)

Data set [3] has as its system Vancomycin-resistant S. aureus 01 (VRSA01). The data set can be described thus: microbe, parasite or virus in culture. It is filed as cell-based, Staphylococcus aureus. The conditions noted are these: VRSA01 (induced from VISA01 by serial passage); CLSI broth microdilution, TSB, 5 × 10^5 CFU/mL, 16 h, 37 °C; triplicate. The protocol:
as §3, §1

The test system of data set [4] is Vancomycin-resistant S. aureus 02 (VRSA02). Nature of the data set: microbe, parasite or virus in culture. It is filed as cell-based, Staphylococcus aureus. The conditions noted are these: VRSA02 (induced from VISA02 by serial passage); CLSI broth microdilution, TSB, 5 × 10^5 CFU/mL, 16 h, 37 °C; triplicate. On the procedure:
as §3, §1

Data set [5] relates to E. faecium BCRC 15B0132 (VRE). Nature of the data set: Time killing assay. It is filed as cell-based, Enterococcus faecium. Particulars: 5 × 10^5 CFU/mL, 1 × MIC, 0.5-24 h, 37 °C, triplicate. The protocol: The bactericidal activities of vancomycin, P-113, Phe-P-113, Bip-P-113, Dip-P-113, and Nal-P-113 against E. faecium BCRC 15B0132 (VRE) and E. coli ATCC 25922 were assessed by the time-kill analysis. The cells were grown overnight in TSB or MHB at 37 °C with shaking, and then fresh TSB or MHB was inoculated for growth to mid-logarithmic phase. Bacteria (5 × 10^5 CFU/mL) were treated with 1 × MIC vancomycin, P-113, Phe-P-113, Bip-P-113, Dip-P-113, and Nal-P-113 for 0.5, 1, 2, 4, 6, 10, and 24 h at 37 °C. Bacteria without peptides and vancomycin served as a control. Aliquots were removed at each time points, and 10-fold serial dilutions of the aliquot were plated onto the Müller-Hinton agar. The numbers of CFU were counted after 24 h of incubation at 37 °C. The detection limit for the colony counts was 2log10 CFU/mL.

In a further data set the test system is human fibroblasts (HFW). Particulars: peptide >25 µg/mL; cited from earlier work.
The subject of data set [6] is E. coli ATCC 25922. The data set can be described thus: microbe, parasite or virus in culture. It is filed as cell-based, Escherichia coli. Particulars: ATCC 25922, 16 h. On the procedure: as §1
The test system of data set [7] is VRE, VISA, VRSA, and E. coli strains. The data set can be described thus: microbe, parasite or virus in culture. It is filed as cell-based. Particulars: all strains studied (VRE, VISA 01-03, VRSA 01-03, E. coli), Table 2. On the procedure:
as §1

The next data set concerns mice. The conditions noted are these: mouse, in vivo, 10 mg/kg; cited from earlier work.
The conditions of data set [8]: among the P-113 derivatives; cited from earlier work. An excerpt: The two terminal β-naphthylalanine residues of S1-Nal-Nal (Ac-[…]alNal-NH2) were inserted into the hydrophobic lipid A motif of LPS micelles. […] Similarly, derivatives with phenylalanine-(Phe-P-113), β-naphthylalanine- (Nal-P-1 ...
Data set [9] deals with Vancomycin-intermediate S. aureus 03 (VISA03). Nature of the data set: microbe, parasite or virus in culture. It is filed as cell-based, Staphylococcus aureus. Particulars: Vancomycin-intermediate 03 (VISA03, 16 h). On the procedure:
as §1

The test system of data set [10] is Vancomycin-intermediate S. aureus 02 (VISA02). The data set can be described thus: microbe, parasite or virus in culture. It is filed as cell-based, Staphylococcus aureus. The conditions noted are these: Vancomycin-intermediate 02 (VISA02, 16 h). The protocol: as §1
Data set [11] concerns Vancomycin-intermediate S. aureus 01 (VISA01). The data set can be described thus: microbe, parasite or virus in culture. It is filed as cell-based, Staphylococcus aureus. Particulars: Vancomycin-intermediate 01 (VISA01, 16 h). On the procedure:
as §1

For data set [12] the following is noted: POPC:POPG (3:1, mol/mol) and POPC:LPS (4:1, mol/mol) LUVs; cited from earlier work. The source says:
Dathe and coauthors used POPC:LPS as model prokaryotic membranes to study peptide activity against E. coli and the role of LPS [20]. Previously, we have evaluated the membrane-permeability of P-113 and its derivatives by measuring the release of calcein from various phospholipid vesicles such as POPC:POPG (3:1, mol/mol) LUVs (mimic the anionic bacterial membrane) and POPC:LPS (4:1, mol/mol) LUVs (served as surrogates of Gram-negative bacterial membranes that contain LPS). […] Nal- ...

The test system of data set [13] is E. coli ATCC 25922. Nature of the data set: Uptake of BODIPY-labeled vancomycin, confocal laser scanning microscopy. It is filed as cell-based, Escherichia coli. The conditions noted are these: E. coli 10^7 CFU/mL, 0.5 ×MIC peptide 30 min at 37 °C, then BODIPY-labeled vancomycin (2 μg/mL) 30 min; mean fluorescence intensity. On the procedure: as §2
In data set [14] the test system is VRE, VISA, VRSA and E. coli strains. The data set can be described thus: Checkerboard assay, summary statements of the text over the strain panel. It is filed as cell-based. The conditions noted are these: peptide at ¼ ×MIC combined with vancomycin, all strains studied. The protocol: The synergistic effects of peptides in combination with vancomycin were investigated by checkerboard assay with slight modification. The peptides were fixed concentration at ¼ × MIC, then in combination with antibiotics at various concentrations in each well of 96-well plate. Then the peptide/antibiotic were mixed with inoculum (5 × 10^5 CFU/mL) and incubated at 37 °C for 16 h. The fractional inhibitory concentration (FIC) index was calculated as follows: FIC index = (MIC of drug A in combination/MIC of drug A alone) + (MIC of drug B in combination/MIC of drug B alone). An FIC index of ≤ 0.5 was defined as synergy, indifference was defined as an FIC index of 0.5 < FICI ≤ 4, antagonism was defined as an FIC index of > 4. The experiments were performed in triplicate.

Values after ≈ are worked out from the molar mass of the structure shown. Non-standard residues stand in square brackets, D forms with d. Residues, ends and D or L forms follow the SMILES beside them. Bip = N[C@@H](Cc1ccc(-c2ccccc2)cc1)C(=O)O

`CC(=O)N[C@@H](C)C(=O)N[C@@H](CCCCN)C(=O)N[C@@H](CCCNC(=N)N)C(=O)N[C@@H](Cc1ccc(-c2ccccc2)cc1)C(=O)N[C@@H](Cc1ccc(-c2ccccc2)cc1)C(=O)NCC(=O)N[C@@H](Cc1ccc(O)cc1)C(=O)N[C@@H](CCCCN)C(=O)N[C@@H](CCCNC(=N)N)C(=O)N[C@@H](CCCCN)C(=O)N[C@@H](Cc1ccccc1)C(=O)N[C@@H](Cc1ccc(-c2ccccc2)cc1)C(N)=O` [Bip-P-113] (Ac-AKR[Bip][Bip]GYKRKF[Bip]-NH2): the MIC in data set [1] was 4 µg/mL (≈ 2.15 µM); in [2], 8 µg/mL (≈ 4.29 µM); in data set [3] it was 16 µg/mL (≈ 8.58 µM); in [4] it was 16 µg/mL (≈ 8.58 µM); with E. coli ATCC 25922 [6], 32 µg/mL (≈ 17.2 µM); in data set [9] it was 8 µg/mL (≈ 4.29 µM). Also, the MIC in [10] and in [11] was 16 µg/mL (≈ 8.58 µM) each time. The “entry of BODIPY-labeled vancomycin into the bacteria (rank order)” value is given as “Bip-P-113 = Nal-P-113 > Dip-P-113 > Phe-P-113 = P-113” in the data set with E. faecium BCRC 15B0132 and “Bip-P-113 > Nal-P-113 > Dip-P-113 > Phe-P-113 = P-113” with E. coli ATCC 25922 [13]. Besides, the killing kinetics result in [5] was “rapid bactericidal activity”. Also, in the data set with human fibroblasts (HFW), the “cell death (MTT)” value is 10–20%. In addition, the “MICs against these bacterial strains” value in data set [7] is recorded as “best MICs”. Also, in the data set with mice, the “adverse effect in mice” value is “did not observe any adverse effect”. Also, the serum proteolytic stability result in data set [8] is “enhanced”. In [12], the “calcein leakage from LUVs” value is listed as “strongest ability to induce calcein leakage”. Besides, in data set [14], the “synergy with vancomycin (interpretation of FICI)” value was “best synergy with vancomycin against all of the bacterial strains tested”.
